Laboratory results published in patent US4211769A, “Preparations for vaginal administration” (Takeda Chemical Industries, Ltd., priority 1977, dated 1980).
Where two headings read alike, the source gives them in different places.

How the values were obtained:
[1] = test system: matured female SD rats; format: in vivo, rat; conditions: vaginal, aqueous solution with 10% citric acid at pH 2.0
Method: A synthetic peptide (monoacetate.pentahydrate; (Pyr)Glu-His-Trp-Ser-Tyr-D-Leu-Leu-Arg-Pro-NH-C2 H5) was dissolved in aliquots of Clark-Lubs buffer [J. Bact. 2, (1), 109, 191(1971) [or Sorensen's buffer [Ergeb.Physiol. 12, 3931 (1912)] at pH 2-7 and each solution was supported on a piece (substantially-predetermined volume) of cotton and administered into the vaginas of rats to investigate the pH dependence of the ovulation-stimulating activity of the peptide.
Using matured female SD rats (120-150 days, body weights from 250 to 350 g), each preparation was vaginally administered during the diestrus and the animal was autopsied next morning to check for the occurrence of ovulation based on the presence or absence of ova in the ampulla.
The same peptide as that used in Example 12 was dissolved in 0.238 mol/liter aqueous solutions of various water-soluble aliphatic carboxylic acids which had been previously adjusted to pH 3.5 with small amounts of 10 N--NaOH. […]
The same peptide as used in Example 12 was employed as the active component. Citric acid was added to aliquots of phthalate buffer (pH 3.5) at the levels of addition of 1, 2, 5, 7 and 10% (W/V) and the pH of each solution was readjusted to pH 3.5 with a small amount of concentrated NaOH. […]

[2] = test system: rat; format: in vivo
Excerpt: In terms of ovulation-stimulating action, a 30 times increase of stimulating effect was obtained over the control (without carboxylic acid) in the case of natural type LH-RH (Table 1). […] It is clear that a given pharmacological effect can be obtained at a dose equivalent to 5.2 times the intravenous dose or 3.1 times the subcutaneous dose. […] In view of these facts, it is obvious that the vaginal administration according to this invention is a very advantageous method of medication.
Thus, to achieve a given ovulation-stimulatingactivity, the vaginal preparation according to this invention requires only 2.6 times as much of peptide as by the intravenous route and 1.7 times as much of peptide as by the subcutaneous route. The unusual effectiveness of the vaginal preparation of this invention will also be apparent in view of the fact that oral administration requires 1900 times as much of peptide as by the intravenous route, rectal administration requires 82 times the dosage by the intravenous route, and vaginal administration with the oleaginous basis (Witepsol® S55) requires 26 times as much of peptide as by the intravenous route.

## CCNC(=O)[C@@H]1CCCN1C(=O)[C@H](CCCNC(=N)N)NC(=O)[C@H](CC(C)C)NC(=O)[C@@H](CC(C)C)NC(=O)[C@H](Cc1ccc(O)cc1)NC(=O)[C@H](CO)NC(=O)[C@H](Cc1c[nH]c2ccccc12)NC(=O)[C@H](Cc1c[nH]cn1)NC(=O)[C@@H]1CCC(=O)N1 [peptide of Example 12, (Pyr)Glu-His-Trp-Ser-Tyr-D-Leu-Leu-Arg-Pro-NH-C2 H5]
[1]
  ED50, ovulation-stimulating activity: 9.9 ng/100 g (body weight of rat)
[2]; intravenous route
  ED50, ovulation-stimulating activity: 3.8 ng/100 g (body weight of rat)
[2]; subcutaneous route
  ED50, ovulation-stimulating activity: 5.8 ng/100 g (body weight of rat)
